The subject of this experiment is model rat of the present invention (13LK freely fed). The experiment can be described thus: Alkalizing agent (citrate or sodium bicarbonate) given to the 13LK-fed model rat: urine pH and urinary corticosterone excretion (Example 3). Format: in vivo. Conditions: 13LK model rat, 1 week, n = 8; for Urine pH: 13LK control 5.7 ± 0.2; for Urine corticosterone: 13LK control 486 ± 115. The method, then:
Citrate or sodium bicarbonate was administered as an alkalizing agent using the model rat of the present invention prepared in Example 1 (13LK was freely fed as a feed for one week), and the results of confirming urine pH and urinary glucocorticoid (corticosterone) excretion are shown in Table 3. Urine pH increased and corticosterone excretion decreased in both the citrate administration group and the sodium bicarbonate administration group as compared to the control group.

This is an account of results in patent publication US20210196747A1, “METABOLISM IMPROVING AGENT” (University of the Ryukyus, priority 2018, published 2021).

With `O=C([O-])O.[Na+]` [NaHCO3, sodium bicarbonate], the “Urine pH” value was found to be 6.8 ± 0.6 and the Urine corticosterone came to 309 ± 116 ng/day. For the setting “listed as sodium bicarbonate”, the “Urine pH” value is “increased” and the Urine corticosterone entry was “decreased”.
